The values below come from patent US20240383915A1, “OXAZEPINE COMPOUNDS AND USES THEREOF IN THE TREATMENT OF CANCER” (Genentech, Inc., priority 2021, published 2024).

One assay has as its system PC-9 cells. Description: PC9 proliferation assay. Type of assay: cell-based, human. The settings on record: read-out: PC9 Prolif IC50 (G12V).
A further assay relates to SW480 cells. The assay can be described thus: SW480 proliferation assay. Type of assay: cell-based. The following applies: read-out: SW480 Prolif IC50 (G12V).
For a further assay, the target named is KRas(G12V) (Homo sapiens (Human), UniProt P01116, G12V). The assay can be described thus: KRas(G12V) GDP HTRF (BODIPY-GDP exchange TR-FRET). It counts as biochemical.
Sequence of KRas(G12V) (P01116-2 other isoform, or with tags, fused parts or gaps G12V): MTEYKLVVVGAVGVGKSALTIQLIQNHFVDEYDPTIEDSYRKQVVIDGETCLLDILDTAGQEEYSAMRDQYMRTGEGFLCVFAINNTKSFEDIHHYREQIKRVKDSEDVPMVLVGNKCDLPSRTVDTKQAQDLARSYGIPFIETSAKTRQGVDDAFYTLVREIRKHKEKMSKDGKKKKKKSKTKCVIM
Another assay has as its target KRas (Homo sapiens (Human), UniProt P01116). The assay can be described thus: KRas GDP HTRF (BODIPY-GDP exchange TR-FRET). It counts as biochemical. A digest of the protocol:
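Inhibition of SOS1-mediated exchange of BODIPY-GDP on KRAS G12D, started with 3 nM recombinant human SOS1 and 300 nM BODIPY-GDP and read after 60 min. TR-FRET excitation 337 nm, ratio 520/490 nm ×10,000. IC50 from 4-parameter Hill fit of normalized data.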

Where two headings read alike, the source gives them in different places.

Sequence of KRas (P01116-2 other isoform, or with tags, fused parts or gaps): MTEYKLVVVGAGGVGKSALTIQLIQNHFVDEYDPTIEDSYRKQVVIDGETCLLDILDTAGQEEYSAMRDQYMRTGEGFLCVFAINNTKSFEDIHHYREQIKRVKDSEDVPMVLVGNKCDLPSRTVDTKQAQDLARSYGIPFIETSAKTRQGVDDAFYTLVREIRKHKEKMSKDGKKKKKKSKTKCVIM

Regarding `Cc1cc(N)nc(-c2c(Cl)c3c4c(nc(OC[C@@]56CCCN5C[C@H](F)C6)nc4c2F)N([C@H](C)c2cccnc2N)CCO3)c1C(F)(F)F` (atropisomer, axis not shown; (aS)) [Example 48, 6-(4-((R)-1-(2-aminopyridin-3-yl)ethyl)-8-chloro-10-fluoro-2-(((2R,7aS)-2-fluoro-hexahydro-1H-pyrrolizin-7a-yl)methoxy)-5,6-dihydro-4H-[1,4]oxazepino[5,6,7-de]quinazolin-9-yl)-4-methyl-5-(trifluoromethyl)pyridin-2-amine], the IC50 (commonly the concentration needed to halve the response being measured) with PC-9 cells (PC9) was determined as 1500 nM; in the assay with SW480 cells (SW480) it was 1.4 nM; against KRas(G12V) it was 0.04 nM; against KRas it was 0.091 nM.
With `Cc1cc(N)nc(-c2c(Cl)c3c4c(nc(OC[C@@]56CCCN5C[C@H](F)C6)nc4c2F)N([C@@H]2CCCc4ccnc(N)c42)CCO3)c1C(F)(F)F` (atropisomer, axis not shown; (aS)) [Example 65a, (R)-8-((R)-9-(6-amino-4-methyl-3-(trifluoromethyl)pyridin-2-yl)-8-chloro-10-fluoro-2-(((2R,7aS)-2-fluorotetrahydro-1H-pyrrolizin-7a(5H)-yl)methoxy)-5,6-dihydro-4H-[1,4]oxazepino[5,6,7-de]quinazolin-4-yl)-5,6,7,8-tetrahydroisoquinolin-1-amine], the 50% inhibitory concentration (IC50) in the assay on PC-9 cells (Homo sapiens, PC-9, PC9) came out at 940 nM; in the assay on SW480 cells (Homo sapiens, SW480, SW480), 2.6 nM; against KRas(G12V) it was 0.1 nM; on KRas, 0.25 nM.
The like results for `Cc1cc(N)nc(-c2c(F)c3c4c(nc(OC[C@@]56CCCN5C[C@H](F)C6)nc4c2F)N([C@H](C)c2cccnc2N)CCO3)c1C(F)(F)F` (atropisomer, axis not shown; (aS)) [Example 66a, 6-((R)-4-((R)-1-(2-aminopyridin-3-yl)ethyl)-8,10-difluoro-2-(((2R,7aS)-2-fluorotetrahydro-1H-pyrrolizin-7a(5H)-yl)methoxy)-5,6-dihydro-4H-[1,4]oxazepino[5,6,7-de]quinazolin-9-yl)-4-methyl-5-(trifluoromethyl)pyridin-2-amine] were, in that order, 2800 nM, 3.1 nM, 0.05 nM and 0.12 nM.
The like results for `Cc1c(F)c(N)nc(-c2c(Cl)c3c4c(nc(OC[C@@]56CCCN5C[C@H](F)C6)nc4c2F)N([C@H](C)c2cccnc2N)CCO3)c1C(F)(F)F` (atropisomer, axis not shown; (aS)) [Example 75a, 6-((R)-4-((R)-1-(2-aminopyridin-3-yl)ethyl)-8-chloro-10-fluoro-2-(((2R,7aS)-2-fluorotetrahydro-1H-pyrrolizin-7a(5H)-yl)methoxy)-5,6-dihydro-4H-[1,4]oxazepino[5,6,7-de]quinazolin-9-yl)-3-fluoro-4-methyl-5-(trifluoromethyl)pyridin-2-amine] were, in that order, 890 nM, 1.1 nM, 0.05 nM and 0.066 nM.
As to `CNc1cnc(N)c([C@@H](C)N2CCOc3c(Cl)c(-c4nc(N)cc(C)c4C(F)(F)F)c(F)c4nc(OC[C@@]56CCCN5C[C@H](F)C6)nc2c34)c1` (atropisomer, axis not shown; (aS)) [Example 79, 3-((R)-1-((R)-9-(6-amino-4-methyl-3-(trifluoromethyl)pyridin-2-yl)-8-chloro-10-fluoro-2-(((2R,7aS)-2-fluorotetrahydro-1H-pyrrolizin-7a(5H)-yl)methoxy)-5,6-dihydro-4H-[1,4]oxazepino[5,6,7-de]quinazolin-4-yl)ethyl)-N^5-methylpyridine-2,5-diamine], the IC50 in the assay on PC-9 cells (Homo sapiens, PC-9, PC9) was determined as 3100 nM; in the assay with SW480 cells (Homo sapiens, SW480, SW480), 2.4 nM; at KRas(G12V), 0.22 nM; at KRas, 0.34 nM.
Turning to `Cc1cc(N)nc(-c2c(Cl)c3c4c(nc(OC[C@@]56CCCN5C[C@H](F)C6)nc4c2F)N([C@@H](C)c2nccnc2N)CCO3)c1C(F)(F)F` (atropisomer, axis not shown; (aS)) [Example 80, 3-((S)-1-((R)-9-(6-amino-4-methyl-3-(trifluoromethyl)pyridin-2-yl)-8-chloro-10-fluoro-2-(((2R,7aS)-2-fluorotetrahydro-1H-pyrrolizin-7a(5H)-yl)methoxy)-5,6-dihydro-4H-[1,4]oxazepino[5,6,7-de]quinazolin-4-yl)ethyl)pyrazin-2-amine], the IC50 in the assay with PC-9 cells (Homo sapiens, PC-9, PC9) was found to be 1200 nM; in the assay on SW480 cells (Homo sapiens, SW480, SW480), 940 nM; on KRas(G12V), 8.2 nM; at KRas, 23.6 nM.
Regarding `Cc1cc(N)nc(-c2c(Cl)c3c4c(nc(OC[C@@]56CCCN5C[C@H](F)C6)nc4c2F)N([C@H](C)c2cncnc2N)CCO3)c1C(F)(F)F` (atropisomer, axis not shown; (aS)) [Example 81, 5-((R)-1-((R)-9-(6-amino-4-methyl-3-(trifluoromethyl)pyridin-2-yl)-8-chloro-10-fluoro-2-(((2R,7aS)-2-fluorotetrahydro-1H-pyrrolizin-7a(5H)-yl)methoxy)-5,6-dihydro-4H-[1,4]oxazepino[5,6,7-de]quinazolin-4-yl)ethyl)pyrimidin-4-amine], the IC50 with PC-9 cells (Homo sapiens, PC-9, PC9) was found to be 7800 nM; in the assay with SW480 cells (Homo sapiens, SW480, SW480) it was 6.1 nM; against KRas(G12V), 0.067 nM; on KRas it was 0.0659 nM.
As for `Cc1cc(N)nc(-c2c(Cl)c3c4c(nc(OC[C@@]56CCCN5C[C@H](F)C6)nc4c2F)N([C@@H](c2cccnc2N)C2CC2)CCO3)c1C(F)(F)F` (atropisomer, axis not shown; (aS)) [Example 86, 6-((R)-4-((R)-(2-aminopyridin-3-yl)(cyclopropyl)methyl)-8-chloro-10-fluoro-2-(((2R,7aS)-2-fluorotetrahydro-1H-pyrrolizin-7a(5H)-yl)methoxy)-5,6-dihydro-4H-[1,4]oxazepino[5,6,7-de]quinazolin-9-yl)-4-methyl-5-(trifluoromethyl)pyridin-2-amine], the IC50 in the assay with PC-9 cells (Homo sapiens, PC-9, PC9) was 3700 nM; in the assay with SW480 cells (Homo sapiens, SW480, SW480) it was 4.9 nM; against KRas(G12V) it was 0.15 nM; against KRas it was 0.44 nM.
Consider `Cc1cc(N)nc(-c2c(Cl)c3c4c(nc(OC[C@@H]5CC[C@H]6COCCN65)nc4c2F)N([C@H](C)c2cccnc2N)CCO3)c1C(F)(F)F` (atropisomer, axis not shown; (aS)) [Example 87a, 6-((R)-4-((R)-1-(2-aminopyridin-3-yl)ethyl)-8-chloro-10-fluoro-2-(((6S,8aS)-hexahydro-1H-pyrrolo[2,1-c][1,4]oxazin-6-yl)methoxy)-5,6-dihydro-4H-[1,4]oxazepino[5,6,7-de]quinazolin-9-yl)-4-methyl-5-(trifluoromethyl)pyridin-2-amine], for which the half-inhibitory concentration (IC50) in the assay on PC-9 cells (Homo sapiens, PC-9, PC9) is 6300 nM; in the assay with SW480 cells (Homo sapiens, SW480, SW480) it was 2.5 nM; on KRas(G12V) it was 0.087 nM; at KRas, 0.106 nM.
Take `Cc1cc(N)nc(-c2c(Br)c3c4c(nc(OC[C@@]56CCCN5C[C@H](F)C6)nc4c2F)N([C@H](C)c2cccnc2N)CCO3)c1C(F)(F)F` (atropisomer, axis not shown; (aS)) [Example 88, (R)-6-(4-((R)-1-(2-aminopyridin-3-yl)ethyl)-8-bromo-10-fluoro-2-(((2R,7aS)-2-fluorotetrahydro-1H-pyrrolizin-7a(5H)-yl)methoxy)-5,6-dihydro-4H-[1,4]oxazepino[5,6,7-de]quinazolin-9-yl)-4-methyl-5-(trifluoromethyl)pyridin-2-amine]: the IC50 stood at 3000 nM in the assay on PC-9 cells (Homo sapiens, PC-9, PC9); 1.5 nM with SW480 cells (Homo sapiens, SW480, SW480); 0.05 nM against KRas(G12V); 0.12 nM against KRas.
In the case of `CCO[C@H]1CN2CCC[C@@]2(COc2nc3c4c(c(Cl)c(-c5nc(N)cc(C)c5C(F)(F)F)c(F)c4n2)OCCN3[C@H](C)c2cccnc2N)C1` (atropisomer, axis not shown; (aS)) [Example 89, 6-((R)-4-((R)-1-(2-aminopyridin-3-yl)ethyl)-8-chloro-2-(((2R,7aS)-2-ethoxytetrahydro-1H-pyrrolizin-7a(5H)-yl)methoxy)-10-fluoro-5,6-dihydro-4H-[1,4]oxazepino[5,6,7-de]quinazolin-9-yl)-4-methyl-5-(trifluoromethyl)pyridin-2-amine], the IC50 came to 2400 nM in the assay on PC-9 cells (Homo sapiens, PC-9, PC9); 7.2 nM in the assay on SW480 cells (Homo sapiens, SW480, SW480); 0.075 nM at KRas(G12V); 0.17 nM against KRas.
As to `Cc1cc(N)nc(-c2c(Cl)c3c4c(nc(OC[C@@H]5CC[C@H]6COC(F)(F)CN56)nc4c2F)N([C@H](C)c2cccnc2N)CCO3)c1C(F)(F)F` (atropisomer, axis not shown; (aS)) [Example 91a, 6-((R)-4-((R)-1-(2-aminopyridin-3-yl)ethyl)-8-chloro-2-(((6S,8aS)-3,3-difluorohexahydro-1H-pyrrolo[2,1-c][1,4]oxazin-6-yl)methoxy)-10-fluoro-5,6-dihydro-4H-[1,4]oxazepino[5,6,7-de]quinazolin-9-yl)-4-methyl-5-(trifluoromethyl)pyridin-2-amine], the IC50 was 20000 nM in the assay on PC-9 cells (Homo sapiens, PC-9, PC9); 3.4 nM in the assay with SW480 cells (Homo sapiens, SW480, SW480); 0.29 nM against KRas(G12V); 0.9 nM on KRas.
`Cc1cc(N)nc(-c2c(Cl)c3c4c(nc(OC[C@@]56CCCN5C[C@H](F)C6)nc4c2F)N([C@H](C)c2nccnc2N)CCO3)c1C(F)(F)F` (atropisomer, axis not shown; (aS)) [Example 101, 3-((R)-1-((R)-9-(6-amino-4-methyl-3-(trifluoromethyl)pyridin-2-yl)-8-chloro-10-fluoro-2-(((2R,7aS)-2-fluorotetrahydro-1H-pyrrolizin-7a(5H)-yl)methoxy)-5,6-dihydro-4H-[1,4]oxazepino[5,6,7-de]quinazolin-4-yl)ethyl)pyrazin-2-amine]: the 50% inhibitory concentration (IC50) stood at 830 nM in the assay on PC-9 cells (Homo sapiens, PC-9, PC9); 5.7 nM in the assay on SW480 cells (Homo sapiens, SW480, SW480); 0.06 nM against KRas(G12V); 0.0616 nM against KRas.
